Measured values taken from patent US11236069B2, “KIF18A inhibitors” (AMGEN INC., priority 2018, dated 2022).

biological target: Recombinant human KIF18A (1-467 His-tagged) protein (Homo sapiens (Human), UniProt Q8NI77); experiment: KIF18A Enzyme Assay: microtubule-stimulated ATPase activity (ADP-Glo); conditions: read-out: KIF18A ATPase IC50
Sequence (Q8NI77 1-467): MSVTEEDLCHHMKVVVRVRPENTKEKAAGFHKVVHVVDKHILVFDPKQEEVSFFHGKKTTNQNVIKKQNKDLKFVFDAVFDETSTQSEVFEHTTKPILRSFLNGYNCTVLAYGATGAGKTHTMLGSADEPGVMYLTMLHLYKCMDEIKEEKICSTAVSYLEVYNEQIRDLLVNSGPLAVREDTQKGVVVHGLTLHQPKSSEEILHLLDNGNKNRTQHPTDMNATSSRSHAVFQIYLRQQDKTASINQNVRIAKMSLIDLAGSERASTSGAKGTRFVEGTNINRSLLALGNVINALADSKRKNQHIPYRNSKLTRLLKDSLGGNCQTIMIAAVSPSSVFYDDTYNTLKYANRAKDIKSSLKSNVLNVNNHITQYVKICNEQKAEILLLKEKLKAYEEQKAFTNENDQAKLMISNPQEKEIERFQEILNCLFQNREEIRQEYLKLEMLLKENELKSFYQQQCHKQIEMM
Sequence (P02550 whole entry partner): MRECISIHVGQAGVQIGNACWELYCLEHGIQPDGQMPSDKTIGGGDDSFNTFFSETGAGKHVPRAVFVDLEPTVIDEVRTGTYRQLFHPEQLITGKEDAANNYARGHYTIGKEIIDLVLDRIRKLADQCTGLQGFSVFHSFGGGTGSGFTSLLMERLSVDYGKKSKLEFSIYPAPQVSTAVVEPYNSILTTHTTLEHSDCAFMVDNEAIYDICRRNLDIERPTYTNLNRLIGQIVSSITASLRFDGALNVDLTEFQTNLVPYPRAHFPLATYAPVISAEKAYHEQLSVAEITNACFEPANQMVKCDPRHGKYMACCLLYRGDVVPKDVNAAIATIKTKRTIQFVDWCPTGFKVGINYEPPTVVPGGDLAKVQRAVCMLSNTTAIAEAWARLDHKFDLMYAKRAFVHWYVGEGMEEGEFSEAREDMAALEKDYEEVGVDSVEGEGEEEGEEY
Sequence (P02554 whole entry partner): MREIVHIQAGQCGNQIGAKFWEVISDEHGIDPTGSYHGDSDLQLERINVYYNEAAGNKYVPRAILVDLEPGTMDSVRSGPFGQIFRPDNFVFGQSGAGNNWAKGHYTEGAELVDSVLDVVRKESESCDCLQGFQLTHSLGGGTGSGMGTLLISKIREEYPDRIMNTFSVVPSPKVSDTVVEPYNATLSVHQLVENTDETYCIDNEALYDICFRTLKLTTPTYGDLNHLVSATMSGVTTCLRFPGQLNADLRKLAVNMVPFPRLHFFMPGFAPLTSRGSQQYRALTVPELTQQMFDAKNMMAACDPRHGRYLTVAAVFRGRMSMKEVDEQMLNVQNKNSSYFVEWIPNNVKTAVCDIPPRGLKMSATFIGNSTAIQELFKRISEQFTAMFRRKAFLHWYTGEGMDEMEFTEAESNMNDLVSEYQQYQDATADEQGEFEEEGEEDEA
Description: KIF18A Enzyme Assay: Microtubule-stimulated ATPase activity assay is used to measure KIF18A enzyme activity after treatment with compound. Compounds were 2-fold serially diluted in DMSO (Sigma Inc) over 22-point concentration range. […] The assay measures ADP formed from the ATPase reaction.

With `Cc1cc(NC(=O)c2ccc(NS(=O)(=O)[C@@H](C)CO)cc2N2CCC3(CC2)CC3)nc(N2CCC(F)(F)CC2)n1` [Example 5-2, (S)-N-(2-(4,4-Difluoropiperidin-1-yl)-6-methylpyrimidin-4-yl)-4-((2-hydroxy-1-methylethyl)sulfonamido)-2-(6-azaspiro[2.5]octan-6-yl)benzamide] the IC50 was 70 nM.

same assay, conditions: read-out: KIF18A ATPase IC50; 30 nM KIF18A, 30 μg/mL pig microtubules, ATP at Km 75 μM, ADP-Glo luminescence

Going from `Cc1cc(NC(=O)c2ccc(NS(=O)(=O)CCO)cc2N2CCC3(CC2)CC3)nc(N2CC(C(C)(C)O)C2)n1` [Example 11-14, 4-((2-Hydroxyethyl)sulfonamido)-N-(2-(3-(2-hydroxypropan-2-yl)azetidin-1-yl)-6-methylpyrimidin-4-yl)-2-(6-azaspiro[2.5]octan-6-yl)benzamide] to `Cc1cc(NC(=O)c2ccc(NS(=O)(=O)CCO)cc2N2CCC3(CC2)CC3)nc(N2CCC[C@@H](O)C2)n1` [Example 11-54, (R)-4-((2-Hydroxyethyl)sulfonamido)-N-(2-(3-hydroxypiperidin-1-yl)-6-methylpyrimidin-4-yl)-2-(6-azaspiro[2.5]octan-6-yl)benzamide], the IC50 falls from 172 nM to 74 nM (2.3-fold).

First: CC[S@](=N)(=O)c1ccc(C(=O)Nc2cc(C)nc(N3CCC(F)(F)CC3)n2)c(N2CCC3(CC2)CC3)c1 (single isomer, unassigned) [Example 19-4, 2-(6-Azaspiro[2.5]octan-6-yl)-N-(2-(4,4-difluoro-1-pieridinyl)-6-methyl-4-pyrimidinyl)-4-(R-ethylsulfonimidoyl)benzamide]
Second: Cc1cc(NC(=O)c2ccc(S(=O)(=O)CC(C)(C)O)cc2N2CCC3(CC2)CC3)nc(N2CCC(F)(F)CC2)n1 [Example 14-4, N-(2-(4,4-Difluoropiperidin-1-yl)-6-methylpyrimidin-4-yl)-4-((2-hydroxy-2-methylpropyl)sulfonyl)-2-(6-azaspiro[2.5]octan-6-yl)benzamide]
The IC50 of the first is 23-fold lower: 35 nM for the first, 806 nM for the second.

Going from `Cc1cc(NC(=O)c2ccc(NS(=O)(=O)CCO)cc2N2CCC3(CC2)CC3)nc(N2CC(O)(C3CC3)C2)n1` [Example 11-16, N-(2-(3-Cyclopropyl-3-hydroxyazetidin-1-yl)-6-methylpyrimidin-4-yl)-4-((2-hydroxyethyl)sulfonamido)-2-(6-azaspiro[2.5]octan-6-yl)benzamide] to `Cc1cc(NC(=O)c2ccc(NS(=O)(=O)CCO)cc2N2CCC3(CC2)CC3)nc(N2CCC(F)(F)C2)n1` [Example 11-30, N-(2-(3,3-Difluoropyrrolidin-1-yl)-6-methylpyrim-4-yl)-4-((2-hydroxyethyl)sulfonamido)-2-(6-azaspiro[2.5]octan-6-yl)benzamide], the IC50 falls from 1010 nM to 33 nM (31-fold). The second is the more potent here.

First: Cc1cc(NC(=O)c2ccc(NS(=O)(=O)C3([C@H](C)O)CC3)cc2N2CCC3(CC2)CC3)nc(N2CCC(F)(F)CC2)n1 [Example 6-31-2, (S)-N-(2-(4,4-Difluoropiperidin-1-yl)-6-methylpyrimidin-4-yl)-4-((1-(1-hydroxyethyl)cyclopropane)-1-sulfonamido)-2-(6-azaspiro[2.5]octan-6-yl)benzamide]
Second: Cc1cc(NC(=O)c2ccc(NS(=O)(=O)C(C)C)cc2N2CCC3(CC2)CC3)nc(N2CCC(F)(F)CC2)n1 [Example 6-22, N-(2-(4,4-Difluoropiperidin-1-yl)-6-methylpyrimidin-4-yl)-4-((1-methylethyl)sulfonamido)-2-(6-azaspiro[2.5]octan-6-yl)benzamide]
The IC50 of the first is 1.9-fold higher: 281 nM for the first, 151 nM for the second.

Going from `N=S(=O)(c1ccc(C(=O)Nc2ccnc(N3CCC(F)(F)CC3)c2)c(N2CCC3(CC2)CC3)c1)C1CC1` (stereo not shown) [Example 19-6, 4-(Cyclopropanesulfonimidoyl)-N-(2-(4,4-difluoropiperidin-1-yl)pyridin-4-yl)-2-(6-azaspiro[2.5]octan-6-yl)benzamide] to `O=C(Nc1ccnc(N2CCC(F)(F)CC2)c1)c1ccc(NS(=O)(=O)CCO)cc1N1CCC2(CC1)CC2` [Example 6-29, N-(2-(4,4-Difluoropiperidin-1-yl)pyridin-4-yl)-4-((2-hydroxyethyl)sulfonamido)-2-(6-azaspiro[2.5]octan-6-yl)benzamide], the IC50 falls from 42 nM to 17 nM (2.5-fold). The second is the more potent here.

Compared with `C[C@@H]1CN(c2cc(NC(=O)c3ccc(NS(=O)(=O)CCO)cc3N3CCC4(CC3)CC4)ccn2)CCO1` [Example 11-65], `Cc1cc(NC(=O)c2ccc(NS(=O)(=O)CCO)cc2N2CCC3(CC2)CC3)nc(N2CCO[C@@H](C)C2)n1` [Example 11-45, (S)-4-((2-Hydroxyethyl)sulfonamido)-N-(6-methyl-2-(2-methylmorpholino)pyrimidin-4-yl)-2-(6-azaspiro[2.5]octan-6-yl)benzamide] is 4.3-fold lower in IC50: 151 nM for the first, 35 nM for the second.

First: Cc1cc(NC(=O)c2ccc(S(=O)(=O)NCCO)cc2N2CCC3(CC2)CC3)nc(N2CC(F)(F)C2)n1 [Example 17-5, N-(2-(3,3-Difluoroazetidin-1-yl)-6-methylpyrimidin-4-yl)-4-(N-(2-hydroxyethyl)sulfamoyl)-2-(6-azaspiro[2.5]octan-6-yl)benzamide]
Second: O=C(Nc1ccnc(N2CCC(F)(F)CC2)n1)c1ccc(S(=O)(=O)NCCO)cc1N1CCC2(CC1)CC2 [Example 17-4, N-(2-(4,4-Difluoropiperidin-1-yl)pyrimidin-4-yl)-4-(N-(2-hydroxyethyl)sulfamoyl)-2-(6-azaspiro[2.5]octan-6-yl)benzamide]
The IC50 of the first is 5.8-fold higher: 133 nM for the first, 23 nM for the second.

`Cc1cc(NC(=O)c2ccc(NS(=O)(=O)CCO)cc2N2CCC3(CC2)CC3)nc(OC(C)C)n1` [Example 11-79, 4-((2-Hydroxyethyl)sulfonamido)-N-(2-isopropoxy-6-methylpyrimidin-4-yl)-2-(6-azaspiro[2.5]octan-6-yl)benzamide] and `Cc1cc(NC(=O)c2ccc(NS(=O)(=O)CCO)cc2N2CCC3(CC2)CC3)nc(OCCC(F)(F)F)n1` [Example 11-61, 4-((2-Hydroxyethyl)sulfonamido)-N-(6-methyl-2-(3,3,3-trifluoropropoxy)pyrimidin-4-yl)-2-(6-azaspiro[2.5]octan-6-yl)benzamide] are within 1.5-fold of each other in IC50: 57 nM for the first, 70 nM for the second.

`O=C(Nc1ccnc(N2CCC(F)(F)CC2)c1F)c1ccc(NS(=O)(=O)CCO)cc1N1CCC2(CC1)CC2` [Example 11-63, N-(2-(4,4-Difluoropiperidin-1-yl)-3-fluoropyridin-4-yl)-4((2-hydroxyethyl)sulfonamido)-2-(6-azaspiro[2.5]octan-6-yl)benzamide] and `C[C@H](CO)S(=O)(=O)Nc1ccc(C(=O)Nc2ccnc(N3CCC(F)(F)CC3)n2)c(N2CCC3(CC2)CC3)c1` [Example 6-26-2, (R)-N-(2-(4,4-Difluoropiperidin-1-yl)pyrimidin-4-yl)-4-((2-hydroxy-1-methylethyl)sulfonamido)-2-(6-azaspiro[2.5]octan-6-yl)benzamide] are within 1.5-fold of each other in IC50: 22 nM for the first, 21 nM for the second.

Going from `Cc1cc(NC(=O)c2ccc(S(=O)(=O)C3COC3)cc2N2CCC3(CC2)CC3)nc(N2CCC(F)(F)CC2)n1` [Example 14-1, N-(2-(4,4-Difluoropiperidin-1-yl)-6-methylpyrimidin-4-yl)-4-(oxetan-3-ylsulfonyl)-2-(6-azaspiro[2.5]octan-6-yl)benzamide] to `Cc1cc(NC(=O)c2ccc(NS(=O)(=O)CC3CC3)cc2N2CCC3(CC2)CC3)nc(N2CCC(F)(F)CC2)n1` [Example 6-18, 4-((Cyclopropylmethyl)sulfon-amido)-N-(2-(4,4-difluoropiperidin-1-yl)-6-methylpyrimidin-4-yl)-2-(6-azaspiro[2.5]octan-6-yl)benzamide], the IC50 falls from 182 nM to 85 nM (2.1-fold). The second is the more potent here.

Compared with `Cc1cc(NC(=O)c2ccc(S(=O)(=O)NC3(C)COC3)cc2N2CCC3(CC2)CC3)nc(NC(C)(C)CO)n1` [Example 1-7, N-(2-((1-Hydroxy-2-methylpropan-2-yl)amino)-6-methylpyrimidin-4-yl)-4-(N-(3-methyloxetan-3-yl)sulfamoyl)-2-(6-azaspiro[2.5]octan-6-yl)benzamide], `Cc1cc(NC(=O)c2ccc(NS(=O)(=O)CCO)cc2N2CCC3(CC2)CC3)nc(N2[C@H](C)COC[C@@H]2C)n1` [Example 11-48, N-(2-((3S,5R)-3,5-Dimethylmorpholino)-6-methylpyrimidin-4-yl)-4-((2-hydroxyethyl)sulfonamido)-2-(6-azaspiro[2.5]octan-6-yl)benzamide] is 1.8-fold lower in IC50: 168 nM for the first, 95 nM for the second. The second is the more potent here.

`Cc1cc(NC(=O)c2ccc(NS(=O)(=O)CCO)cc2N2CCC3(CC2)CC3)nc(N2CCC(C)(F)CC2)n1` [Example 11-52, N-(2-(4-Fluoro-4-methylpiperidin-1-yl)-6-methylpyrimidin-4-yl)-4-((2-hydroxyethyl)sulfonamido)-2-(6-azaspiro[2.5]octan-6-yl)benzamide] and `Cc1cc(NC(=O)c2ccc(NS(=O)(=O)CCO)cc2N2CCC3(CC2)CC3)nc(N2CCC3CC32)n1` (stereo not shown) [Example 11-28, N-(2-(2-Azabicyclo[3.1.0]hexan-2-yl)-6-methylpyrimidin-4-yl)-4-((2-hydroxyethyl)sulfonamido)-2-(6-azaspiro[2.5]octan-6-yl)benzamide] are within 1.5-fold of each other in IC50: 63 nM for the first, 59 nM for the second.

`Cc1cc(NC(=O)c2ccc(NS(=O)(=O)CCO)cc2N2CCC3(CC2)CC3)nc(N2CCC[C@@H]3C[C@@H]32)n1` [Example 11-44, N-(2-((1S,6R)-2-Azabicyclo[4.1.0]heptan-2-yl)-6-methylpyrimidin-4-yl)-4-((2-hydroxyethyl)sulfonamido)-2-(6-azaspiro[2.5]octan-6-yl)benzamide] and `Cc1cc(NC(=O)c2ccc(NS(=O)(=O)CC3(O)COC3)cc2N2CCC3(CC2)CC3)nc(N2CCC(F)(F)CC2)n1` [Example 6-19, N-(2-(4,4-Difluoropiperidin-1-yl)-6-methylpyrimidin-4-yl)-4-(((3-hydroxyoxetan-3-yl)methyl)sulfonamido)-2-(6-azaspiro[2.5]octan-6-yl)benzamide] are within 1.5-fold of each other in IC50: 33 nM for the first, 39 nM for the second.

With `Cc1cc(NC(=O)c2ccc(NS(=O)(=O)C[C@H](C)O)cc2N2CCC3(CC2)CC3)nc(OCCC(F)(F)F)n1` [Example 6-28-2, (S)-4-((2-Hydroxypropyl)sulfonamido)-N-(6-methyl-2-(3,3,3-trifluoropropoxy)pyrimidin-4-yl)-2-(6-azaspiro[2.5]octan-6-yl)benzamide] the IC50 was 71 nM.
